Data on nine molecules can be found in article PMC6345774, “Kinetic and thermodynamic effects of phosphorylation on p53 binding to MDM2” (Scientific Reports, 2019).

Series [1] can be described thus: Far-UV CD of isolated peptides in aqueous solution (helicity). The note with it: 5 °C, 50 mM phosphate pH 6.8; for molar ellipticity at 222 nm, [Θ]222: far-UV CD; for % Helix in water ([Θ]222): from molar ellipticity at 222 nm assuming 100% helix = −31500 deg cm^2 dmol^−1. In kind it is physicochemical. The protocol:
Spectra were acquired on a Jasco J815 spectropolarimeter (Jasco, Japan) interfaced with a Peltier unit. The instrument was periodically calibrated with (+) 10-camphorsulphonic acid. Far-UV measurements (in aqueous or TFE solutions) were performed in 0.1-cm-pathlength quartz cells (Hellma), with a response time of 2 s, a band width of 1 nm, data were collected every 0.2 nm, and a scan velocity of 50 nm/min (or 20 nm/min). […] In all peptides, two concentrations (10 μM and 70 μM) in aqueous solutions (50 mM sodium phosphate buffer, pH 6.8 […]) were used to determine whether either the shapes or the intensities of the spectra were concentration-dependent. […] In all cases (aqueous solution or TFE titrations), the corresponding blank solutions (containing only buffer, or buffer and the corresponding amount of TFE) were subtracted from the spectra.
(§1) For the TFE titrations, a peptide concentration of 40 μM was used. The samples were prepared the day before and left overnight at 5 °C to reach equilibrium. The experiments in aqueous solution were acquired at 5 °C, in 50 mM sodium phosphate buffer, pH 6.8. Raw ellipticity was converted to molar ellipiticity, [Θ], from which the percentage of helical populations was determined. Co-solvent concentrations were indicated in percentage of volume. […] Fitting of the titration curves, obtained by observation of the molar ellipticity at 222 nm as the TFE concentration was increased, was carried out with Kaleidagraph (Synergy software).

Series [2] addresses T1, human MDM2 (residues 2–125) (Homo sapiens, UniProt Q00987).
T1 construct: human MDM2 (residues 2–125); made in house; host or cells: E. coli BL21 (DE3)
Kind of series: Equilibrium fluorescence titration of p53-peptides and MDM2. Format: binding. As to conditions: fluorescence at 315 nm, excitation 280 nm; MDM2 4 μM, peptide 0–10 μM; 15 °C, pH 8.0 Tris-HCl, 250 mM NaCl, 0.5 mM TCEP; overnight equilibration; titration repeated twice; read-out: Kd from fluorescence titrations. The protocol: (§2) Expression and purification of human MDM2 (residues 2–125) was carried out as described[23] in BL21 (DE3) cells. […] Protein concentration was determined from the absorbance of its seven Tyr residues.

The target of series [3] is T1, human MDM2 (residues 2–125). Kind of series: Stopped-flow fluorescence kinetics of p53-peptide binding to MDM2. As to conditions: 15 °C; for kon / koff: stopped-flow Trp fluorescence, 50 mM Tris-HCl pH 8.0, 250 mM NaCl, 0.5 mM TCEP, peptide 0.125 μM, ± fitting error; for kon: MDM2 1–3 μM, pseudo-first order, slope, read-out: kon 10^6; for koff: y-axis intercept of pseudo-first-order plot. As to the method:
as §2
The kinetics of the MDM2/p53-peptide interaction was measured at 15 °C using an Applied Photophysics stopped-flow fluorimeter in the same buffer as that used in the equilibrium fluorescence experiments. The experimental procedure has been described previously. Association kinetics was measured under pseudo-first order conditions, by keeping the MDM2 concentration in excess of that of the peptide. […] Excitation wavelength was 280 nm with a cut-off filter of 315 nm on the emission side. The slit widths were 10 nm for excitation and emission.
At each MDM2 concentration a minimum of six traces were acquired; and the fitting in all cases for all peptides was carried out with the averaging of at least four traces. The averaged trace was always fitted to a single exponential function, which yielded, kobs. Fitting to a single exponential curve was carried out by using Kaleidagraph (Synergy Software); reported errors in kobs are from the exponential fitting. The dissociation (koff) and association (kon) rate constants were obtained from the straight line: kobs=kon×[MDM2]+koff.
Errors in both rates were from the linear fitting; the errors were always larger for koff due to the extrapolation to the y-axis intercept.

Series [4] in a line: TFE titrations monitored by CD (helical population). Format: physicochemical. The note with it: 5 °C, 50 mM phosphate pH 6.8, peptide 40 μM; for [TFE]1/2 (midpoint of TFE titration) / m (m-value of TFE titration): CD at 222 nm, two-state fit, ± fitting error; for % Helix in water (from ΔG in TFE titrations): from ΔG = [TFE]1/2 × m, for 1% values the error was 10%. The protocol:
Unlike the above programs, which make assumptions about how the ellipticity signal relates to secondary structure content, a TFE titration allows the determination of helical content derived from the free-energy change for the equilibrium between folded (in TFE) and unfolded peptide, without any such assumptions.
as §1

The target in series [5] is T1, human MDM2 (residues 2–125). In words: Isothermal titration calorimetry of p53-peptide binding to MDM2. The note with it: ITC, 15 °C, 50 mM Tris-HCl pH 8.0, 250 mM NaCl, 0.5 mM TCEP; for Kd / ΔH of binding: peptide titrated into MDM2; for Kd: read-out: Log KA (converted); for ΔH of binding: repeated twice. As to the method: Protein concentration was determined from the absorbance of its seven Tyr residues.
Peptide binding to MDM2 was measured by using an Auto-iTC200 (Malvern Instruments, Malvern UK), as described[24],[37]. Data acquisition was carried out with a reference power of 10 µcal/s, initial delay of 60 s, spacing between injections of 150 s. In a typical ITC experiment, the p53 peptide was loaded into a 40 μl syringe and the protein was placed into the sample cell. The sequence of injections consisted of one 0.5 μl injection followed by 19 injections of 2 μl each. Control experiments loading peptide into buffer solution were also carried out for each peptide. Experiments were performed with freshly prepared protein solutions, at 15 °C in the same buffer used in fluorescence experiments. ITC experiments were performed at 15 °C rather than 25 °C to avoid aggregation of MDM2.
Each peak was integrated using NITPIC software. The areas of the peaks are related to the heat exchanged upon binding and/or dilution. This heat was corrected of the heat of dilution (i.e., the average heat of the injections after the equilibrium has reached the saturation). Titration with each peptide was repeated twice.

The target in series [6] is T2, human MDM2 (residues 2–125) (human, UniProt Q00987 2-125).
T2 construct: MDM2 (murine double minute 2), human, N-terminal domain, residues 2-125; no tag is named; also called N-terminal domain of MDM2
In words: ITC; p53 peptide in the syringe titrated into MDM2 in the cell; Auto-iTC200; 15 °C; 50 mM Tris-HCl pH 8.0, 250 mM NaCl, 0.5 mM TCEP. The note with it: both partners purified.

Series [7] has as its target T2, human MDM2 (residues 2–125). Kind of series: other fluorescence titration; peptide 0–10 μM added to 4 μM MDM2; fluorescence at 315 nm after excitation at 280 nm; 15 °C; 50 mM Tris-HCl pH 8.0, 250 mM NaCl, 0.5 mM TCEP; samples left overnight at 5 °C. The note with it: both partners purified.
The target is the same in series [8]. In words: stopped-flow fluorescence; pseudo-first order, peptide 0.125 μM final, MDM2 in excess (typically 1 μM to 3 μM); Trp23 fluorescence, excitation 280 nm, 315 nm cut-off; 15 °C; 50 mM Tris-HCl pH 8.0, 250 mM NaCl, 0.5 mM TCEP; Kd as koff/kon assuming a two-state reaction. The note with it: both partners purified.

T1 sequence (Q00987 2-125): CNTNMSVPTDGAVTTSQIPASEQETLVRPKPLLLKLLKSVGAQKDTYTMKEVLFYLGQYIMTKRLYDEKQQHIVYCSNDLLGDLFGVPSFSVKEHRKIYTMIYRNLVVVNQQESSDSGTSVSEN
T2 sequence (Q00987 2-125): as above

As usually defined, the kon is the rate constant with which the complex forms. The koff is the first-order rate constant of dissociation. Turning to `CC(=O)N[C@@H](CCC(=O)O)C(=O)N[C@H](C(=O)N[C@@H](Cc1ccccc1)C(=O)N[C@@H](CCC(=O)O)C(=O)N[C@@H](CC(=O)O)C(=O)N[C@@H](CC(C)C)C(=O)N[C@@H](Cc1c[nH]c2ccccc12)C(=O)N[C@@H](CCCCN)C(=O)N[C@@H](CC(C)C)C(=O)N[C@@H](CC(C)C)C(=O)N1CCC[C@H]1C(=O)N[C@@H](CCC(=O)O)C(=O)N[C@@H](CC(N)=O)C(N)=O)[C@@H](C)O` [P53-E20], in series [1], the “molar ellipticity at 222 nm, [Θ]222” value was −2911 deg cm^2 dmol^−1 and the “% Helix in water ([Θ]222)” value turned out to be 9.2%. Further, in series [2], the Kd came out at 0.7 ± 0.1 µM. In series [3], the kon is 9e+06 ± 2e+06 M⁻¹ s⁻¹ and the koff amounted to 8 ± 5 s⁻¹. Besides, in series [4], the “[TFE]1/2 (midpoint of TFE titration)” value was 25 ± 2 % (vol:vol), the “m (m-value of TFE titration)” value is on record as 231 ± 141 cal mol^−1(%)^−1 and the “% Helix in water (from ΔG in TFE titrations)” value came out at 1%.

Turning to `CC(=O)N[C@@H](CCC(=O)O)C(=O)N[C@@H](CCC(=O)O)C(=O)N[C@@H](Cc1ccccc1)C(=O)N[C@@H](CO)C(=O)N[C@@H](CC(=O)O)C(=O)N[C@@H](CC(C)C)C(=O)N[C@@H](Cc1c[nH]c2ccccc12)C(=O)N[C@@H](CCCCN)C(=O)N[C@@H](CC(C)C)C(=O)N[C@@H](CC(C)C)C(=O)N1CCC[C@H]1C(=O)N[C@@H](CCC(=O)O)C(=O)N[C@@H](CC(N)=O)C(N)=O` [P53-E18], in series [1], the “molar ellipticity at 222 nm, [Θ]222” value was −2380 deg cm^2 dmol^−1 and the “% Helix in water ([Θ]222)” value is recorded as 7.5%. In series [5], the TΔS of binding is -0.26 kcal/mol, the Kd was 7.08 µM and the ΔH of binding was -7.02 kcal/mol. Moreover, in series [3], the association rate constant (kon) came to 3.8e+06 ± 700000 M⁻¹ s⁻¹ and the koff is 16 ± 2 s⁻¹. For the same molecule, in series [4], the “[TFE]1/2 (midpoint of TFE titration)” value was 14 ± 5 % (vol:vol), the “m (m-value of TFE titration)” value was 103 ± 42 cal mol^−1(%)^−1 and the “% Helix in water (from ΔG in TFE titrations)” value is on record as 7 ± 1%.

In the case of `CC(=O)N[C@@H](CCC(=O)O)C(=O)N[C@@H](CC(=O)O)C(=O)N[C@@H](Cc1ccccc1)C(=O)N[C@@H](CO)C(=O)N[C@@H](CC(=O)O)C(=O)N[C@@H](CC(C)C)C(=O)N[C@@H](Cc1c[nH]c2ccccc12)C(=O)N[C@@H](CCCCN)C(=O)N[C@@H](CC(C)C)C(=O)N[C@@H](CC(C)C)C(=O)N1CCC[C@H]1C(=O)N[C@@H](CCC(=O)O)C(=O)N[C@@H](CC(N)=O)C(N)=O` [P53-D18], in series [1], the “molar ellipticity at 222 nm, [Θ]222” value is −3313 deg cm^2 dmol^−1 and the “% Helix in water ([Θ]222)” value was 10.5%. In series [5], the TΔS of binding was -12.19 kcal/mol, the Kd is 19.1 µM and the ΔH of binding is -18.39 kcal/mol. In addition, the Kd in series [3] (ratio of kinetic rate constants, assuming two-state binding without intermediates, read-out: Kd (koff/kon)) stood at 5 ± 3 µM. In addition, in series [3], the kon turned out to be 5e+06 ± 3e+06 M⁻¹ s⁻¹ and the koff was 23 ± 9 s⁻¹. Moreover, in series [4], the “[TFE]1/2 (midpoint of TFE titration)” value is recorded as 12.0 ± 0.7 % (vol:vol), the “m (m-value of TFE titration)” value is on record as 383 ± 142 cal mol^−1(%)^−1 and the “% Helix in water (from ΔG in TFE titrations)” value is reported as 1%.

For the molecule Ac-EEFEDLWKLLPEN-NH2 [P53-E18-E20], in series [1], the “molar ellipticity at 222 nm, [Θ]222” value is listed as −2757 deg cm^2 dmol^−1 and the “% Helix in water ([Θ]222)” value is given as 8.7%. In series [5], the TΔS of binding is -2.16 kcal/mol, the Kd is 5.01 µM and the ΔH of binding was -9.12 kcal/mol. For the same molecule, in series [3], the kon was 2.7e+06 ± 900000 M⁻¹ s⁻¹ and the koff amounted to 17 ± 2 s⁻¹. Also, in series [4], the “[TFE]1/2 (midpoint of TFE titration)” value is 24.5 ± 0.9 % (vol:vol), the “m (m-value of TFE titration)” value was 420 ± 390 cal mol^−1(%)^−1 and the “% Helix in water (from ΔG in TFE titrations)” value came out at 1%.

B1: Ac-ETFdDLWKLLPEN-NH2 (P53-D20) (peptide)
peptide: Ac-ETFDDLWKLLPEN-NH2
As for B1, in series [6], the Kd was 5.7 µM, the “Log KA” value stood at 5.24 and the dH is -10.2 kcal/mol. Also, in series [7], the Kd came to 1.5 ± 0.4 µM.

B2: Ac-ETFeDLWKLLPEN-NH2 (P53-E20) (peptide)
peptide: Ac-ETFEDLWKLLPEN-NH2
In turn, B2 showed a Kd in series [8] of 0.9 ± 0.6 µM.

B3: Ac-EeFeDLWKLLPEN-NH2 (P53-E18-E20) (peptide)
peptide: Ac-EEFEDLWKLLPEN-NH2
With B3, in series [6], the Kd stood at 5 µM, the “Log KA” value came to 5.3 and the dH is -9.12 kcal/mol. Besides, the Kd in series [8] came out at 6 ± 2 µM.

B4: Ac-EeFdDLWKLLPEN-NH2 (P53-E18-D20) (peptide)
peptide: Ac-EEFDDLWKLLPEN-NH2
notes: also called double phosphomimetic mutant
For B4, the Kd was determined as 20.4 µM in series [6], 8.3 ± 4.9 µM in series [7] and 4 ± 3 µM in series [8]. Also, in series [6], the “Log KA” value is 4.69. This molecule also came in with a dH in series [6] of -8.8 kcal/mol.

B5: Ac-EeFSDLWKLLPEN-NH2 (P53-E18) (peptide)
peptide: Ac-EEFSDLWKLLPEN-NH2
Take B5: in series [6], the Kd was found to be 7.1 µM, the “Log KA” value came out at 5.15 and the dH is -7.02 kcal/mol. Besides, the Kd in series [7] was determined as 2.3 ± 0.6 µM. For the same molecule, the Kd in series [8] turned out to be 4.2 ± 0.9 µM.
